This series in a line: Concentration of gas dissolved in cell culture liquid or pure water after bubbling, measured by gas chromatography. In kind it is physicochemical. The settings on record: for Correction coefficient α: ratio of average gas concentrations in cell culture liquid and pure water. As to the method: The gas shown in Table 1 was bubbled at 20 mL/min for 1 minute in 5 mL of a cell culture medium (liquid containing 6.4 g/L of sodium chloride, 4.7 g/L of D-glucose, 3.7 g/L of sodium bicarbonate, L-lysine hydrochloride, 0.84 g/L of L-arginine hydrochloride, 0.58 g/L of L-glutamine, and 0.3 g/L of calcium chloride) or in 5 mL of purified water, at a liquid temperature of 23° C.; and dissolved. Subsequently, the concentration of a gas dissolved in the cell culture liquid or pure water was measured by gas chromatography (Shimadzu Corporation). Each measurement was repeated three times, and the average gas concentration was calculated. The correction coefficient α was then obtained by dividing the average gas concentration in the cell culture liquid by the average gas concentration in the pure water.
At a later date, the same measurements as above were performed, and the correction coefficient was calculated in the same manner.

Where [1] appears, read: Table 1, gas bubbled at 20 mL/min for 1 minute in 5 mL cell culture medium, liquid temperature 23° C., average of three measurements.
Setting [2] is: Table 1, gas bubbled at 20 mL/min for 1 minute in 5 mL purified water, liquid temperature 23° C., average of three measurements.
Setting [3] is: Table 2, repeated at a later date.
Where [4] appears, read: Table 2, same measurements repeated at a later date, cell culture medium, 23° C.
The mark [5] stands for this setting: Table 2, same measurements repeated at a later date, purified water, 23° C.

Each structure is given as a SMILES string.

Regarding `FCC(F)(F)F` [CH2F—CF3], the “Gas concentration, Cell culture liquid” value by setting is: under setting [1], 529 ppm; under setting [4], 599 ppm. Besides, the “Gas concentration, Pure water” value runs as follows: under setting [2], 656 ppm; under setting [5], 755 ppm. Besides, the “Correction coefficient α” value by setting is: (Table 1) 1.24; under setting [3], 1.26.

Take `FC(F)Cl` [CHF2Cl]: the “Gas concentration, Cell culture liquid” value under setting [1] amounted to 1785 ppm and the “Gas concentration, Cell culture liquid” value under setting [4] is given as 1820 ppm. For the same compound, the “Gas concentration, Pure water” value under setting [2] is 2399 ppm and the “Gas concentration, Pure water” value under setting [5] is 2421 ppm. The “Correction coefficient α” value is, setting by setting: (Table 1) 1.34; under setting [3], 1.33.

As to `FCF` [CH2F2], the “Gas concentration, Cell culture liquid” value under setting [1] was 2972 ppm and the “Gas concentration, Cell culture liquid” value under setting [4] was determined as 2701 ppm. In addition, the “Gas concentration, Pure water” value came to 4140 ppm under setting [2] and 3673 ppm under setting [5]. Further, the “Correction coefficient α” value reads like this: (Table 1) 1.39; under setting [3], 1.36.

On to `C=C(F)C(F)(F)F` [CF3—CF═CH2], for which the “Gas concentration, Cell culture liquid” value was 262 ppm under setting [1] and 288 ppm under setting [4]. Also, the “Gas concentration, Pure water” value under setting [2] is recorded as 331 ppm and the “Gas concentration, Pure water” value under setting [5] is reported as 360 ppm. Moreover, the “Correction coefficient α” value reads like this: (Table 1) 1.26; under setting [3], 1.25.

The values are drawn from patent US12000819B2, “Gas concentration prediction method” (DAIKIN INDUSTRIES, LTD., priority 2018, dated 2024).
